The assay has as its target wild-type αHL protein pore (Staphylococcus aureus, UniProt P09616). The class given is binding.

Sequence of wild-type αHL protein pore (P09616 27-319 limits assumed): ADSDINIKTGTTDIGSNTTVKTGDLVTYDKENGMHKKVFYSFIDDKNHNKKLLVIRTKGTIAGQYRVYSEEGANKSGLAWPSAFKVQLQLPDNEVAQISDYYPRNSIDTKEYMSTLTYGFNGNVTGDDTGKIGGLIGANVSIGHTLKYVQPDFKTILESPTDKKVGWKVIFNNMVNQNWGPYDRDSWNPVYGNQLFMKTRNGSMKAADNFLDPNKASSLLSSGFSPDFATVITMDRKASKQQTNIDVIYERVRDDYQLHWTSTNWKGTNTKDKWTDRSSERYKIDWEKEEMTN

With `Cl.ClCCN1CCOCC1` [CM, 4-(2-chloroethyl)morpholine hydrochloride], the “mean amplitude of analyte-boromycin complex events” value (from here on “mean amplitude”) is 33.5±1.2 pA and the “τoff (mean dwell time) of analyte-boromycin complex” value (“τoff (mean dwell time)” for short) is 34.7 ± 0.6 ms.

On to `CCNCC.Cl` [DEA, diethylammonium chloride], for which the “mean amplitude” value was 33.6±0.8 pA and the “τoff (mean dwell time)” value was determined as 40.5 ± 0.5 ms.

Turning to `CCN(CC)CC.Cl` [TEA, triethylammonium chloride], the “mean amplitude” value came out at 33.7±0.4 pA and the “τoff (mean dwell time)” value came to 60.6 ± 1.9 ms.

KCl [K^+]: the “mean amplitude” value was 33.6±0.3 pA and the “τoff (mean dwell time)” value turned out to be 52.1 ± 0.3 ms.

Take NH4Cl [NH4^+]: the “mean amplitude” value was 33.7±0.2 pA and the “τoff (mean dwell time)” value is 75.0 ± 1.6 ms.

Turning to boromycin, the “increase of event mean dwell time in BMIM-Cl versus NaCl” value came to 2.6 fold.

(Values after US20100148126A1 (priority 2008, published 2010).)
